Data taken from patent US10059668B2 (Mirati Therapeutics, Inc., priority 2015, dated 2018).

Key:
[1] = target: purified N-terminal truncated human LSD1 enzyme (aa 151-852) (Homo sapiens (Human), UniProt O60341); experiment: LSD1 fluorescence coupling enzymatic assay (horseradish peroxidase/Amplex Red); format: biochemical; conditions: 50 nM LSD1, 30 min pre-incubation, 10 μM histone 3.3 peptide (aa 1-21), 10-point dose-response; read-out: IC50 (nM), Inhibition of LSD1 Activity
[2] = test system: MV4-11 cells; experiment: Inhibition of LSD1-mediated cellular proliferation, CellTiter Glo luminescence assay; format: cell-based, human; conditions: Day 7, cell viability by CellTiter Glo

Row | SMILES | IC50 [1] | EC50 [2] | EC50 ([2]; Homo sapiens, 168 h)
1 | CS(=O)(=O)NC(=O)/C=C/c1ccc(CN2CCC(N[C@@H]3C[C@H]3c3ccccc3)CC2)cc1 (relative stereo) [Example 2, (E)-N-(Methylsulfonyl)-3-(4-((4-(((trans)-2-phenylcyclopropyl)amino)piperidin-1-yl)methyl)phenyl)acrylamide] | 30 nM | – | –
2 | C(=C\c1nnn[nH]1)/c1cccc(CN2CCC(N[C@@H]3C[C@H]3c3ccccc3)CC2)c1 (relative stereo) [Example 14] | 118 nM | 174 nM | –
3 | O=C(/C=C/c1ccc(CN2CCC(CN[C@@H]3C[C@H]3c3ccccc3)CC2)cc1)NS(=O)(=O)c1ccccc1 [Example 48, (E)-3-(4-((4-((((1R,2S)-2-Phenylcyclopropyl)amino)methyl)piperidin-1-yl)methyl)phenyl)-N-(phenylsulfonyl)acrylamide] | 33 nM | – | 9 nM
4 | CS(=O)(=O)NC(=O)/C=C/c1ccc(CN2CCC(CN[C@@H]3C[C@H]3c3ccccc3)CC2)cc1 [Example 49, (E)-N-(methylsulfonyl)-3-(4-((4-((((1R,2S)-2-phenylcyclopropyl)amino)methyl)piperidin-1-yl)methyl)phenyl)acrylamide] | – | – | 26 nM
5 | CS(=O)(=O)NC(=O)c1ccc(CN2CCC(CN[C@@H]3C[C@H]3c3ccccc3)CC2)cc1 [Example 53, N-(Methylsulfonyl)-4-((4-((((1R,2S)-2-phenylcyclopropyl)amino)methyl)piperidin-1-yl)methyl)benzamide] | 27 nM | – | 19 nM
6 | CS(=O)(=O)NC(=O)Cc1ccc(CN2CCC(CN[C@@H]3C[C@H]3c3ccccc3)CC2)cc1 [Example 57] | 44 nM | – | 1 nM

Now from value to compound:

Row | IC50 [1] | EC50 [2] | EC50 ([2]; Homo sapiens, 168 h) | SMILES
7 | 15 nM | – | – | CONC(=O)/C=C/c1ccc(CN2CCC(N[C@@H]3C[C@H]3c3ccccc3)CC2)cc1 (relative stereo) [Example 1, (E)-N-Methoxy-3-(4-((4-(((trans)-2-phenylcyclopropyl)amino)piperidin-1-yl)methyl)phenyl)acrylamide]
8 | 23 nM | 32 nM | – | C(=C\c1ccc(CN2CCC(N[C@@H]3C[C@H]3c3ccccc3)CC2)cc1)/c1ccccc1 (relative stereo) [Example 12]
9 | 17 nM | – | 37 nM | C(=C\c1cccc(CN2CCC(N[C@@H]3C[C@H]3c3ccccc3)CC2)c1)/c1ccccc1 (relative stereo) [Example 13, N-(trans-2-phenylcyclopropyl)-1-(3-((E)-styryl)benzyl)piperidin-4-amine]
10 | 10 nM | – | – | CS(=O)(=O)NC(=O)/C=C/c1ccc(CN2CCC(N[C@@H]3C[C@H]3c3ccccc3)CC2)cc1 [Example 15, (E)-N-(Methylsulfonyl)-3-(4-((4-(((1R,2S)-2-phenylcyclopropyl)amino)piperidin-1-yl)methyl)phenyl)acrylamide]
11 | 3 nM | – | 60 nM | CS(=O)(=O)NC(=O)c1ccc(CN2CCC(N[C@@H]3C[C@H]3c3ccccc3)CC2)cc1 [Example 34, N-(Methylsulfonyl)-4-((4-(((1R,2S)-2-phenylcyclopropyl)amino)piperidin-1-yl)methyl)benzamide]
12 | 25 nM | – | 30 nM | CS(=O)(=O)NC(=O)Cc1ccc(CN2CCC(N[C@@H]3C[C@H]3c3ccccc3)CC2)cc1 [Example 35, N-(Methylsulfonyl)-2-(4-((4-(((1R,2S)-2-phenylcyclopropyl)amino)piperidin-1-yl)methyl)phenyl)acetamide]
